{"source": "patent US9700538B2", "about": "“Cardiovascular disease primary prevention agent for patients having high blood levels of high-sensitivity C-reactive protein” (MOCHIDA PHARMACEUTICAL CO., LTD., priority 2012, dated 2017)", "system": "subjects with no history of cardiovascular disease, blood hs-CRP value of at least 1.0 mg/L", "assay": "Hisayama epidemiologic study: events by administration of statin drug and EPA in the high hs-CRP group", "assay_type": "in vivo, human", "excerpt": "The Hisayama study is an epidemiologic study of cerebral stroke, cardiovascular disease, and the like that has been conducted with the residents of the town of Hisayama town (population, about 8,400) in Kasuya county of Fukuoka prefecture adjacent to Fukuoka city from 1961. The age and occupation distributions of the residents of Hisayama town were almost identical to those of Japan as a whole, and the residents can be regarded as an average group of Japanese people with substantially no bias. Features of the Hisayama study include participation of all residents (who are at least 40 years old), prospective cohort study, examination and home visit by the stuff of the study, consultation rate (at least 80%), autopsy rate (about 80%), and follow-up rate (at least 99%), and the most characteristic feature of this study is the high rate of autopsy. No diagnosis is more accurate than autopsy in finding out the accurate cause of the death, and the precision of the follow up study is also high. In addition, the Hisayama study periodically adds the residents who have reached 40 years old to the group every 5 years, and estimation of influence of the life style transition as well as change of risk factors was thereby enabled.\n3,103 residents of 40 years old or older who were registered in 2002 were used for the subject excluding those who have history of cardiovascular disease and those with no data of EPA/AA ratio. Average follow-up period was 5.1 years.\nThe group with a blood hs-CRP value of at least 1.0 mg/L (high hs-CRP group) was extracted from the entire subjects. The blood hs-CRP value was quantitated by using a commercially available assay kit.\nThe high hs-CRP group was further divided into 4 groups by the administration and non-administration of the statin drug and the administration and non-administration of the EPA.\nIn the table, “statin (−)+EPA (−)” means that neither the statin drug nor the EPA was administered to a subject; “statin (+)+EPA (−)” means that the statin drug was administered but not the EPA; “statin (−)+EPA (+)” means that the statin drug was not administered despite the administration of the EPA; and “statin (+)+EPA (+)” means that both the statin drug and the EPA were administered. Furthermore, “event (−)” and “event (+)” […].", "key": {"[1]": {"details": "high hs-CRP group, EPA irrespective of statin, statin drug vs no statin within the group with no EPA"}, "[2]": {"details": "number of subjects, high hs-CRP group (hs-CRP ≧1.0 mg/L), average follow-up 5.1 years"}}, "data": [{"smiles": "CC/C=C\\C/C=C\\C/C=C\\C/C=C\\C/C=C\\CCCC(=O)O", "note": "[EPA, all-cis-5,8,11,14,17-icosapentaenoic acid]", "values": [{"measurement": "Cerebral stroke event occurrence (in words)", "setting": "entire subjects, irrespective of administration of the statin drug", "result": "no event occurred"}, {"measurement": "Cardiovascular disease event occurrence (in words)", "setting": "[1]", "result": "no event occurred"}, {"measurement": "Cerebral stroke event occurrence (in words)", "setting": "[1]", "result": "no event occurred"}, {"measurement": "Coronary artery disease event occurrence (in words)", "setting": "[1]", "result": "no event occurred"}, {"measurement": "Cardiovascular disease, Event (+)", "setting": "[2]", "result": 0}, {"measurement": "Cardiovascular disease, Event (−)", "setting": "[2]", "result": 4}, {"measurement": "Cerebral stroke, Event (+)", "setting": "[2]", "result": 0}, {"measurement": "Cerebral stroke, Event (−)", "setting": "[2]", "result": 4}, {"measurement": "Coronary artery disease, Event (+)", "setting": "[2]", "result": 0}, {"measurement": "Coronary artery disease, Event (−)", "setting": "[2]", "result": 4}]}]}
